Key:
[1] = biological target: T1, preassembled microtubules (Sus scrofa, UniProt P02550+P02554); experiment: De-polymerization of preassembled microtubules (turbidometry); assay type: biochemical, porcine; conditions: drug added after about 5 min polymerization at 37° C., monitored 10 min at 350 nm
T1 construct: Microtubules proteins were purified from porcine brain; from tissue; host or cells: porcine brain
Procedure: Tubulin purification: Microtubules proteins were purified from porcine brain by using standard procedures that includes three cycles of temperature-dependent polymerization and de-polymerization, as described elsewhere.
Polymerisation assay: Tubulin polymerisation was monitored by using turbidometry assay (lit). Samples (200 μl, 10 μM tubulin) in PEM polymerisation buffer (0.1 M PIPES, pH 6.6, 1 mM EGTA, 1 mM MgSO4, and 1 mM GTP), were rapidly warmed to 37° C. in a water-jacketed cuvette holder of a diode array photometer (Beckman spectrophotometer DU 7500). Absorbance at 350 nm where monitored in the absence and the presence of the drugs.
In order to examine the action of the drug on preassembled microtubules, microtubules proteins were firstly polymerized at 37° C. for approximately 5 min. Then the drug was added, and the stability of the microtubules was measured for further 10 min at 350 nm.

[2] = test system: L929, A549, SW-480, U937 and HL-60 cell lines; experiment: Anti-proliferation MTT assay, comparison over the tested cell lines; assay type: cell-based
Procedure: A given number of cells were cultivated in 96-well plates with serial dilutions of the drugs up to 100 ng/ml. Tubulysin A is used as a positive control, whereas methanol is used as a negative control. After 5 days of incubation the metabolic activities of the cells were measured using MTT-assay as described under the methods section.

T1 sequence (P02554 whole entry): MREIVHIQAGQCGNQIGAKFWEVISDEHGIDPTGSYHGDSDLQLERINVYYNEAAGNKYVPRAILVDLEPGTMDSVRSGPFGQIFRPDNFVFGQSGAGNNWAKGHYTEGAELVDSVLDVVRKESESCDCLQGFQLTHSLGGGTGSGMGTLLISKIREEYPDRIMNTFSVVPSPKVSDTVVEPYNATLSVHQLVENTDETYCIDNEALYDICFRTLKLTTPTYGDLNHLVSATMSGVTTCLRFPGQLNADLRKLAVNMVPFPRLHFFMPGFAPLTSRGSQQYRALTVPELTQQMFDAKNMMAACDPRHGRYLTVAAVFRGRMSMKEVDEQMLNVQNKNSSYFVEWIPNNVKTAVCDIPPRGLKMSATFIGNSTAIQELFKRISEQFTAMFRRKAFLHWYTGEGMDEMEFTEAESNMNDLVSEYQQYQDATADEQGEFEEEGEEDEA
T1 sequence (P02550 whole entry): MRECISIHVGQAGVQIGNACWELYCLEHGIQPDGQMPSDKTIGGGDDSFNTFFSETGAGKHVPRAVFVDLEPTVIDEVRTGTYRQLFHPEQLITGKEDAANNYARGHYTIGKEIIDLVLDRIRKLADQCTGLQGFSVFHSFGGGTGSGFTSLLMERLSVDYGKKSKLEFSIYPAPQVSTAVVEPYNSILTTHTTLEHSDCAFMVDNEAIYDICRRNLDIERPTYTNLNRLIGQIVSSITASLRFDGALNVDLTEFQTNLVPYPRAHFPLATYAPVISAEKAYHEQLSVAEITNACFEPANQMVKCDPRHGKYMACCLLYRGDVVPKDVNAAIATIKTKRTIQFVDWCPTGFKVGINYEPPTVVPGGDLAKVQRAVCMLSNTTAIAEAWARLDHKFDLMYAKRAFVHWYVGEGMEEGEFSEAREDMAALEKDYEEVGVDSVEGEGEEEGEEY

CC[C@H](C)[C@H](NC(=O)[C@H]1CCCCN1C)C(=O)N(C)[C@H](CCc1nc(C(=O)N[C@@H](Cc2ccccc2)C[C@H](C)C(=O)O)cs1)C(C)C [pre-tubulysin-827, pretubulysin]
de-polymerization of preassembled microtubules [1]: induced de-polymerization of microtubules at substoichiometric concentrations
potency/toxicity of pre-tubulysin-827 relative to pre-tubulysin-816 [2]: 5-10 folds

— patent US8791098B2 (priority 2008, dated 2014)
